Test results reported in patent US20220144854A1, “MACROCYCLIC COMPOUNDS” (ZENO MANAGEMENT, INC., priority 2019, published 2022).
Read-outs that look alike come from different tables or passages of the source.

Experiments:
[1] = test system: NCI-H929 (ATCC CRL-9068) cells; assay: NCI-H929 cell proliferation assay (CellTiter-Glo); format: cell-based; conditions: 72 h of compound treatment
Protocol: Cell proliferation was measured using the CellTiter-Glo® Luminescent Cell Viability Assay. The assay involved the addition of a single reagent (CellTiter-Glo® Reagent) directly to cells cultured in serum-supplemented medium.
Each compound evaluated was prepared as a DMSO stock solution (10 mM). Compounds were tested in duplicate on each plate, with a 10-point serial dilution curve (1:3 dilution). Compound treatment ([…]) was added from the compound dilution plate to the cell plate. The highest compound concentration was 10 μM (final), with a 0.1% final DMSO concentration. Plates were then incubated at 37° C., 5% CO2. After 72 h of compound treatment, cell plates were equilibrated at rt for approximately 30 mins. An equi-volume amount of CellTiter-Glo® Reagent (40 μL) was added to each well. Plates were mixed for 2 mins on an orbital shaker to induce cell lysis and then incubated at rt for 10 mins to stabilize the luminescent signal. Luminescence was recorded using an Envision plate reader according to CellTiter-Glo protocol. IC50 of each compound was calculated using GraphPad Prism by nonlinear regression analysis.

Mcl-1 = Mcl-1 (Homo sapiens, UniProt Q07820); assay: Mcl-1 Homogeneous Time Resolved Fluorescence (HTRF) binding assay
Chain of Mcl-1 (Q07820 whole entry): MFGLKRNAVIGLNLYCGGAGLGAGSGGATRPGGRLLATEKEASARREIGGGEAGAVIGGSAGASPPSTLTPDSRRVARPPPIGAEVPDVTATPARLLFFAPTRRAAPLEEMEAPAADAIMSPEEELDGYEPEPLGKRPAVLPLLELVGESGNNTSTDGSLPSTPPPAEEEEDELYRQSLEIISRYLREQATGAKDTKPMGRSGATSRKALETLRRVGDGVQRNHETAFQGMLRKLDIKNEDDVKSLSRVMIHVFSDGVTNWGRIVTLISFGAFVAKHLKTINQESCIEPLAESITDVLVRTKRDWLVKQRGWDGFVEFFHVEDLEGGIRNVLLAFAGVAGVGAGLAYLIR

[2] = HTRF, 4 nM Mcl-1, 100 nM FAM-Bak peptide, 10-dose, singlicate, read-out: Mcl-1 IC50

| SMILES | IC50 [1] [nM] | IC50 (Mcl-1; [2]) [nM] | IC50 ([1]; Homo sapiens, NCI-H929, 72 h) [nM] | IC50 ([1]; Homo sapiens) [nM] | IC50 (Mcl-1; Mcl-1 IC50 (nM)) [nM] |
| --- | --- | --- | --- | --- | --- |
| Cn1nc2cc1CSc1cc(c3ccccc3c1)OCCCc1c(C(=O)O)n(C)c3c(c(Cl)ccc13)-c1c(nn3c1CCC3)CSC2 (single isomer, unassigned) [Example 3A, (Z)-1^6-Chloro-1^1,6^1-dimethyl-2^5,2^6-dihydro-1^1H,2^4H,6^1H-10-oxa-4,8-dithia-1(7,3)-indola-2(3,2)-pyrrolo[1,2-b]pyrazola-6(3,5)-pyrazola-9(3,1)-naphthalenacyclotridecaphane-1^2-carboxylic acid] | < 100 | < 10 |  |  |  |
| Cn1nc2cc1CSc1cc(c3ccccc3c1)OCCCc1c(C(=O)O)n(C)c3c(c(Cl)ccc13)-c1c(nn3c1CCC3)CSC2 (single isomer, unassigned) [Example 3B, (Z)-1^6-Chloro-1^1,6^1-dimethyl-2^5,2^6-dihydro-1^1H,2^4H,6^1H-10-oxa-4,8-dithia-1(7,3)-indola-2(3,2)-pyrrolo[1,2-b]pyrazola-6(3,5)-pyrazola-9(3,1)-naphthalenacyclotridecaphane-1^2-carboxylic acid] | > 1000 | 10 to 100 |  |  |  |
| Cn1nc2cc1CSc1cc(c3ccccc3c1)OCCCc1c(C(=O)O)n(C)c3c(c(Cl)ccc13)-c1c(nn3c1COCC3)CSC2 (single isomer, unassigned) [Example 4A, (Z)-1^6-Chloro-1^1,6^1-dimethyl-2^6,2^7-dihydro-1^1H,2^4H,6^1H-10-oxa-4,8-dithia-2(3,2)-pyrazolo[5,1-c][1,4]oxazina-1(7,3)-indola-6(3,5)-pyrazola-9(3,1)-naphthalenacyclotridecaphane-1^2-carboxylic acid] | 100 to 1000 | < 10 |  |  |  |
| Cn1nc2cc1CSc1cc(c3ccccc3c1)OCCCc1c(C(=O)O)n(C)c3c(c(Cl)ccc13)-c1c(nn3c1COCC3)CSC2 (single isomer, unassigned) [Example 4B, (Z)-1^6-Chloro-1^1,6^1-dimethyl-2^6,2^7-dihydro-1^1H,2^4H,6^1H-10-oxa-4,8-dithia-2(3,2)-pyrazolo[5,1-c][1,4]oxazina-1(7,3)-indola-6(3,5)-pyrazola-9(3,1)-naphthalenacyclotridecaphane-1^2-carboxylic acid] | > 1000 | 10 to 100 |  |  |  |
| Cn1nc2cc1CSc1cc(c3ccccc3c1)OCCCc1c(C(=O)O)n(C)c3c(c(Cl)ccc13)-c1c(nn3c1CSC3)CSC2 (single isomer, unassigned) [Example 5A, (Z)-1^6-Chloro-1^1,6^1-dimethyl-1^1H,2^4H,2^6H,6^1H-10-oxa-4,8-dithia-2(3,2)-pyrazolo[1,5-c]thiazola-1(7,3)-indola-6(3,5)-pyrazola-9(3,1)-naphthalenacyclotridecaphane-1^2-carboxylic acid] | 100 to 1000 | < 10 |  |  |  |
| Cn1nc2cc1CSc1cc(c3ccccc3c1)OCCCc1c(C(=O)O)n(C)c3c(c(Cl)ccc13)-c1c(nn3c1CSC3)CSC2 (single isomer, unassigned) [Example 5B, (Z)-1^6-Chloro-1^1,6^1-dimethyl-1^1H,2^4H,2^6H,6^1H-10-oxa-4,8-dithia-2(3,2)-pyrazolo[1,5-c]thiazola-1(7,3)-indola-6(3,5)-pyrazola-9(3,1)-naphthalenacyclotridecaphane-1^2-carboxylic acid] | > 1000 | > 100 |  |  |  |
| Cc1[nH]nc2c1-c1c(Cl)ccc3c(c(C(=O)O)n(C)c13)CCCOc1cc(cc3ccccc13)SCc1cc(nn1C)CSC2 (single isomer, unassigned) [Example 6A, (Z)-1^6-Chloro-1^1,2^5,6^1-trimethyl-1^1H,2^1H,6^1H-10-oxa-4,8-dithia-1(7,3)-indola-2(4,3),6(3,5)-dipyrazola-9(3,1)-naphthalenacyclotridecaphane-1^2-carboxylic acid] | < 100 | < 10 |  |  |  |
| Cc1[nH]nc2c1-c1c(Cl)ccc3c(c(C(=O)O)n(C)c13)CCCOc1cc(cc3ccccc13)SCc1cc(nn1C)CSC2 (single isomer, unassigned) [Example 6B, (Z)-1^6-Chloro-1^1,2^5,6^1-trimethyl-1^1H,2^1H,6^1H-10-oxa-4,8-dithia-1(7,3)-indola-2(4,3),6(3,5)-dipyrazola-9(3,1)-naphthalenacyclotridecaphane-1^2-carboxylic acid] | > 1000 | 10 to 100 |  |  |  |
| Cc1[nH]nc2c1-c1c(Cl)ccc3c(c(C(=O)O)n(C)c13)CCCOc1cc(cc3ccccc13)SCc1cc(nn1C(C)C)CSC2 (single isomer, unassigned) [Example 9A, (Z)-1^6-Chloro-6^1-isopropyl-1^1,2^5-dimethyl-1^1H,2^1H,6^1H-10-oxa-4,8-dithia-1(7,3)-indola-2(4,3),6(3,5)-dipyrazola-9(3,1)-naphthalenacyclotridecaphane-1^2-carboxylic acid] |  | < 10 | 100 to 1000 |  |  |
| Cc1c2c(nn1C)CSCc1cc(n(C(C)C)n1)CSc1cc(c3ccccc3c1)OCCCc1c(C(=O)O)n(C)c3c-2c(Cl)ccc13 (single isomer, unassigned) [Example 10A, (Z)-1^6-Chloro-6^1-isopropyl-1^1,2^1,2^5-trimethyl-1^1H,2^1H,6^1H-10-oxa-4,8-dithia-1(7,3)-indola-2(4,3),6(3,5)-dipyrazola-9(3,1)-naphthalenacyclotridecaphane-1^2-carboxylic acid] |  | < 10 | < 100 |  |  |
| Cc1c2c(nn1C)CSCc1cc(n[nH]1)CSc1cc(c3ccccc3c1)OCCCc1c(C(=O)O)n(C)c3c-2c(Cl)ccc13 (single isomer, unassigned) [Example 11B, (Z)-1^6-Chloro-1^1,2^1,2^5-trimethyl-1^1H,2^1H,6^1H-10-oxa-4,8-dithia-1(7,3)-indola-2(4,3),6(3,5)-dipyrazola-9(3,1)-naphthalenacyclotridecaphane-1^2-carboxylic acid] |  |  |  | < 100 | < 10 |
| Cc1c2c(nn1C)CSCc1cc(n(C)n1)CSc1cc(c3ccccc3c1)OCCCc1c(C(=O)O)n(C)c3c-2c(F)ccc13 (single isomer, unassigned) [Example 14A, (Z)-1^6-Fluoro-1^1,2^1,2^5,6^1-tetramethyl-1^1H,2^1H,6^1H-10-oxa-4,8-dithia-1(7,3)-indola-2(4,3),6(3,5)-dipyrazola-9(3,1)-naphthalenacyclotridecaphane-1^2-carboxylic acid] |  | < 10 | < 100 |  |  |
| CCn1nc2cc1CSc1cc(c3ccccc3c1)OCCCc1c(C(=O)O)n(C)c3c(c(F)ccc13)-c1c(C)nn(C)c1CSC2 (single isomer, unassigned) [Example 15A, (Z)-6^1-Ethyl-1^6-fluoro-1^1,2^1,2^3-trimethyl-1^1H,2^1H,6^1H-10-oxa-4,8-dithia-1(7,3)-indola-2(4,5),6(3,5)-dipyrazola-9(3,1)-naphthalenacyclotridecaphane-1^2-carboxylic acid] |  | > 100 | > 1000 |  |  |
| Cc1nn(C)c2c1-c1c(F)ccc3c(c(C(=O)O)n(C)c13)CCCOc1cc(cc3ccccc13)SCc1cc(nn1C(C)C)CSC2 (single isomer, unassigned) [Example 16A, (Z)-1^6-Fluoro-6^1-isopropyl-1^1,2^1,2^3-trimethyl-1^1H,2^1H,6^1H-10-oxa-4,8-dithia-1(7,3)-indola-2(4,5),6(3,5)-dipyrazola-9(3,1)-naphthalenacyclotridecaphane-1^2-carboxylic acid] | < 100 | < 10 |  |  |  |
| Cc1nn(C)c2c1-c1c(F)ccc3c(c(C(=O)O)n(C)c13)CCCOc1cc(cc3ccccc13)SCc1cc(nn1CC(C)C)CSC2 (single isomer, unassigned) [Example 17A, (Z)-1^6-Fluoro-6^1-isobutyl-1^1,2^1,2^3-trimethyl-1^1H,2^1H,6^1H-10-oxa-4,8-dithia-1(7,3)-indola-2(4,5),6(3,5)-dipyrazola-9(3,1)-naphthalenacyclotridecaphane-1^2-carboxylic acid] | > 1000 | > 100 |  |  |  |
| Cc1nn(C)c2c1-c1c(F)ccc3c(c(C(=O)O)n(C)c13)CCCOc1cc(cc3ccccc13)SCc1cc(nn1CC1CC1)CSC2 (single isomer, unassigned) [Example 18A] |  | > 100 | > 1000 |  |  |
| Cc1nn(C23CC(C2)C3)c2c1-c1c(Cl)ccc3c(c(C(=O)O)n(C)c13)CCCOc1cc(cc3ccccc13)SCc1cc(nn1C)CSC2 (single isomer, unassigned) [Example 20A, (Z)-2^1-(Bicyclo[1.1.1]pentan-1-yl)-1^6-chloro-1^1,2^3,6^1-trimethyl-1^1H,2^1H,6^1H-10-oxa-4,8-dithia-1(7,3)-indola-2(4,5),6(3,5)-dipyrazola-9(3,1)-naphthalenacyclotridecaphane-1^2-carboxylic acid] | > 1000 | 10 to 100 |  |  |  |
| Cc1nn(C23CC(C2)C3)c2c1-c1c(Cl)ccc3c(c(C(=O)O)n(C)c13)CCCOc1cc(cc3ccccc13)SCc1cc(nn1C)CSC2 (single isomer, unassigned) [Example 20B, (Z)-2^1-(Bicyclo[1.1.1]pentan-1-yl)-1^6-chloro-1^1,2^3,6^1-trimethyl-1^1H,2^1H,6^1H-10-oxa-4,8-dithia-1(7,3)-indola-2(4,5),6(3,5)-dipyrazola-9(3,1)-naphthalenacyclotridecaphane-1^2-carboxylic acid] | < 100 | < 10 |  |  |  |
